Consider 10 molecules from patent US9428507B2, “Compounds for the treatment of malaria” (The Broad Institute, Inc., priority 2013, dated 2016).

The test system of the assay is Dd2 strain of P. falciparum. Put plainly: Activity against the Dd2 strain of P. falciparum (SYBR Green I, 72-h incubation). The note with it: Plasmodium falciparum, DD2, 72 h, read-out: EC^50 Dd2. The format is cell-based. The procedure, abridged:
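SYBR Green I signal (ex 485, em 530 nm) measured growth, read after 24 h dark staining in saponin/Triton lysis buffer. Before that, compound-exposed Dd2 cultures (1% parasitemia, 1.0% hematocrit, 0.125% DMSO) grew 72 h at 37° C in low-oxygen gas. Background control: 20 μM mefloquine.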

Each structure is given as a SMILES string.

`COc1ccc2c3c([nH]c2c1)[C@H](CC(F)(F)F)N(C(C)=O)CC31CCN(C(=O)Nc2ccccc2F)CC1` [Compound 74, (S)-2′-acetyl-N-(2-fluorophenyl)-7′-methoxy-1′-(2,2,2-trifluoroethyl)-1′,2′,3′,9′-tetrahydrospiro[piperidine-4,4′-pyrido[3,4-b]indole]-1-carboxamide]: the EC50 is 30 to 130 nM.

With `COc1ccc2c3c([nH]c2c1)[C@H](CO)N(C(C)=O)CC31CCN(c2nc3ccccc3o2)CC1` [Compound 77, (R)-1-(1-(benzo[d]oxazol-2-yl)-1′-(hydroxymethyl)-7′-methoxyspiro [piperidine-4,4′-pyrido[3,4-b]indol]-2′(1′H,3′H,9′H)-yl)ethanone], the EC50 is 8500 nM.

Consider `COc1ccc2c3c([nH]c2c1)[C@H](CO)N(Cc1cccc(F)c1)CC31CCN(Cc2ccccn2)CC1` [Compound 78, (R)-(2′-(3-fluorobenzyl)-7′-methoxy-1-(pyridin-2-ylmethyl)-1′,2′,3′,9′-tetrahydrospiro [piperidine-4,4′-pyrido[3,4-b]indol]-1′-yl)methanol], for which the EC50 turned out to be 905 nM.

For `COc1ccc2c3c(n(C)c2c1)[C@H](CO)NCC31CCN(Cc2ccc(-c3ccccn3)cc2)CC1` [Compound 79, (R)-(7′-methoxy-9′-methyl-1-(4-(pyridin-2-yl)benzyl)-1′,2′,3′,9′-tetrahydrospiro [piperidine-4,4′-pyrido[3,4-b]indol]-1′-yl)methanol], the EC50 is 135 nM.

`COc1ccc2c3c([nH]c2c1)[C@H](CO)N(C(=O)Nc1ccc(F)cc1)CC31CCN(S(=O)(=O)c2ccccc2)CC1` [Compound 80, (R)-N-(4-fluorophenyl)-1′-(hydroxymethyl)-7′-methoxy-1-(phenylsulfonyl)-3′,9′-dihydrospiro[piperidine-4,4′-pyrido[3,4-b]indole]-2′(1′H)-carboxamide]: the EC50 was 1300 nM.

`COc1ccc2c3c(n(C)c2c1)[C@H](CO)N(Cc1ccc2c(c1)OCO2)CC31CN(C(=O)c2ccc3c(c2)OCO3)C1` [Compound 81, (R)-benzo[d][1,3] dioxol-5-y1(2′-(benzo[d][1,3]dioxol-5-ylmethyl)-1′-(hydroxymethyl)-7′-methoxy-9′-methyl-1′,2′,3′,9′-tetrahydrospiro[azetidine-3,4′-pyrido[3,4-b]indol]-1-yl)methanone]: the EC50 was 130 nM.

`COc1ccc2c3c([nH]c2c1)[C@@H](CO)N(Cc1cccc(F)c1)CC31CCN(Cc2ccccn2)CC1` [Compound 82, (S)-(2′-(3-fluorobenzyl)-7′-methoxy-1-(pyridin-2-ylmethyl)-1′,2′,3′,9′-tetrahydrospiro [piperidine-4,4′-pyrido[3,4-b]indol]-1′-yl)methanol]: the EC50 worked out at 1520 nM.

As to `COc1ccc2c3c(n(C)c2c1)[C@@H](CO)N(Cc1ccccc1OC)CC31CCN(CC2CC2)CC1` [Compound 83, (S)-(1-(cyclopropylmethyl)-7′-methoxy-2′-(2-methoxybenzyl)-9'-methyl-1′,2′,3′,9′-tetrahydrospiro [piperidine-4,4′-pyrido[3,4-b]indol]-1′-yl) methanol], the EC50 worked out at 522 nM.

In the case of `COc1cccc(S(=O)(=O)N2CCC3(CC2)CN[C@H](CO)c2[nH]c4cc(OC)ccc4c23)c1` [Compound 84, (S)-(7′-methoxy-1-((3-methoxyphenyl)sulfonyl)-1′,2′,3′,9′-tetrahydrospiro [piperidine-4,4′-pyrido[3,4-b]indol]-1′-yl)methanol], the EC50 was found to be 2530 nM.

For the molecule `COc1ccc2c3c(n(C)c2c1)[C@H](CO)N(CC1CCCCC1)CC31CCN(Cc2nccs2)CC1` [Compound 85, (R)-(2′-(cyclohexylmethyl)-7′-methoxy-9′-methyl-1-(thiazol-2-ylmethyl)-1′,2′,3′,9′-tetrahydrospiro [piperidine-4,4′-pyrido[3,4-b]indol]-1′-yl)methanol], the EC50 is 1620 nM.
